Tested on: 521955-158-R2-J5-PDC complex spheroid viability
Experiment: Anticancer human tumor 521955-158-R2-J5-PDC patient-derived pancreatic carcinoma cell line growth inhibition
Details: for IC50: curve of first compound; for viability, T/C: stronger effect = lower value
How it was run: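 Multicellular complex spheroids of tumor cells with human endothelial cells (HUVEC) and mesenchymal stem cells; the LSD1 inhibitor iadademstat was combined with standard-of-care or investigational agents. Top concentration at or near clinical Cmax, half-log dilutions; final DMSO ≤0.25%.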

[1] = second compound 0.1 µM, first compound 0.000316 µM
[2] = second compound 0.1 µM, first compound 0.001 µM
[3] = second compound 0.1 µM, first compound 0.00316 µM
[4] = second compound 0.1 µM, first compound 0.01 µM
[5] = second compound 0.1 µM, first compound 0.0316 µM
[6] = second compound 0.1 µM, first compound 0.1 µM
[7] = second compound 0.316 µM, first compound 0.000316 µM
[8] = second compound 0.316 µM, first compound 0.001 µM
[9] = second compound 0.316 µM, first compound 0.00316 µM
[10] = second compound 0.316 µM, first compound 0.01 µM
[11] = second compound 0.316 µM, first compound 0.0316 µM
[12] = second compound 0.316 µM, first compound 0.1 µM
[13] = second compound 1 µM, first compound 0.000316 µM
[14] = second compound 1 µM, first compound 0.001 µM
[15] = second compound 1 µM, first compound 0.00316 µM
[16] = second compound 1 µM, first compound 0.01 µM
[17] = second compound 1 µM, first compound 0.0316 µM
[18] = second compound 1 µM, first compound 0.1 µM
[19] = second compound 3.16 µM, first compound 0.000316 µM
[20] = second compound 3.16 µM, first compound 0.001 µM
[21] = second compound 3.16 µM, first compound 0.00316 µM
[22] = second compound 3.16 µM, first compound 0.01 µM
[23] = second compound 3.16 µM, first compound 0.0316 µM
[24] = second compound 3.16 µM, first compound 0.1 µM
[25] = second compound 10 µM, first compound 0.000316 µM
[26] = second compound 10 µM, first compound 0.001 µM
[27] = second compound 10 µM, first compound 0.00316 µM
[28] = second compound 10 µM, first compound 0.01 µM
[29] = second compound 10 µM, first compound 0.0316 µM
[30] = second compound 10 µM, first compound 0.1 µM
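Further: spheroids exposed to agents for seven days.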
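Wherever viability, T/C is given: percent of DMSO vehicle control luminescence viability.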

Structure (SMILES)	IC50 (second compound 0.1 µM) [nM]	IC50 (second compound 0.316 µM) [nM]	IC50 (second compound 1 µM) [nM]	IC50 (second compound 3.16 µM) [nM]	IC50 (second compound 10 µM) [nM]	viability, T/C [3] [%]	viability, T/C [4] [%]	viability, T/C [5] [%]	viability, T/C [6] [%]	viability, T/C [9] [%]	viability, T/C [10] [%]	viability, T/C [11] [%]	viability, T/C [12] [%]	viability, T/C [15] [%]	viability, T/C [16] [%]	viability, T/C [17] [%]	viability, T/C [18] [%]	viability, T/C [21] [%]	viability, T/C [22] [%]	viability, T/C [23] [%]	further results
CC(C)CC(NC(=O)C(Cc1ccccc1)NC(=O)c1cnccn1)B(O)O (stereo not given) + NC1CC1c1ccc(-c2cccc(O)c2)cc1	0.538	0.504	0.515	0.462	0.336	0.11	0.08	0.09	0.26	0.17	0.18	0.1	0.3	0.24	0.04	0.06	0.28	0.15	0.08	0.07	viability, T/C [1]: 92.2%; viability, T/C [2]: 0.66%; viability, T/C [7]: 83.8%; viability, T/C [8]: 0.44%; viability, T/C [13]: 86.6%; viability, T/C [14]: 0.35%; viability, T/C [19]: 74.4%; viability, T/C [20]: 0.52%; viability, T/C [24]: 0.2%; viability, T/C [25]: 52.8%; viability, T/C [26]: 0.4%; viability, T/C [27]: 0.22%; viability, T/C [28]: 2.1%; viability, T/C [29]: 0.17%; viability, T/C [30]: 1.31%
CC(C)CC(NC(=O)CNC(=O)c1cc(Cl)ccc1Cl)B1OC(=O)CC(CC(=O)O)(C(=O)O)O1 (stereo not given) + NC1CC1c1ccc(-c2cccc(O)c2)cc1	5.71	5.63	5.49	5.37	4.75	86.8	15.1	0.96	0.46	89.2	15.8	0.53	0.18	87.3	13	0.98	0.23	83.8	12.3	0.68	viability, T/C [1]: 83.1%; viability, T/C [2]: 91.7%; viability, T/C [7]: 73.4%; viability, T/C [8]: 90.5%; viability, T/C [13]: 81.3%; viability, T/C [14]: 83.6%; viability, T/C [19]: 76.3%; viability, T/C [20]: 86.2%; viability, T/C [24]: 0.23%; viability, T/C [25]: 87.6%; viability, T/C [26]: 93.7%; viability, T/C [27]: 72.7%; viability, T/C [28]: 8.29%; viability, T/C [29]: 0.39%; viability, T/C [30]: 0.24%
COc1cc(Nc2ncc3c(n2)-c2ccc(Cl)cc2C(c2c(F)cccc2OC)=NC3)ccc1C(=O)O + NC1CC1c1ccc(-c2cccc(O)c2)cc1	> 1000	> 1000	> 1000	> 1000	> 1000	67.5	73.7	69.4	67.2	65.9	78.9	62.1	72.1	75.1	71.4	65.6	82.5	66.4	72	81.8	viability, T/C (second compound 0.1 µM, first compound 0.316 µM): 66.2%; viability, T/C (second compound 0.1 µM, first compound 1 µM): 61.2%; viability, T/C (second compound 0.316 µM, first compound 0.316 µM): 81.7%; viability, T/C (second compound 0.316 µM, first compound 1 µM): 59.3%; viability, T/C (second compound 1 µM, first compound 0.316 µM): 70.8%; viability, T/C (second compound 1 µM, first compound 1 µM): 71.7%; viability, T/C [24]: 72.2%; viability, T/C (second compound 3.16 µM, first compound 0.316 µM): 75.4%; viability, T/C (second compound 3.16 µM, first compound 1 µM): 66%; viability, T/C [27]: 69.5%; viability, T/C [28]: 69.5%; viability, T/C [29]: 67.6%; viability, T/C [30]: 63.1%; viability, T/C (second compound 10 µM, first compound 0.316 µM): 57.5%; viability, T/C (second compound 10 µM, first compound 1 µM): 71.6%
